# In ChEMBL document CHEMBL1201862, “PubChem BioAssay data set” (2004):
#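 How tested: cells in 96-well plates exposed to compound for 48 hours at five concentrations. Abbreviation: GI50, concentration required for 50% inhibition of growth.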 Calls of active or inactive are those of the source. No stated cut-off is given here; in the data, active = GI50 up to about 1.1 µM and inactive = higher.
# Assays:
# Experiment in all cases: growth of human tumour cells (NCI), 48 h
# SF-268 = tested on: SF-268
# RPMI-8226 = tested on: RPMI-8226
# SNB-75 = tested on: SNB-75
# MDA-N = tested on: MDA-N
# NCI-H522 = tested on: NCI-H522
# UACC-62 = tested on: UACC-62
# HL-60 = tested on: HL-60
# OVCAR-8 = tested on: OVCAR-8
# SK-OV-3 = tested on: SK-OV-3
# CAKI-1 = tested on: CAKI-1
# A498 = tested on: A498
# HOP-92 = tested on: HOP-92
# LOX IMVI = tested on: LOX IMVI
# Hs-578T = tested on: Hs-578T
# CCRF-CEM = tested on: CCRF-CEM
# HCC 2998 = tested on: HCC 2998
# SF-539 = tested on: SF-539
# OVCAR-4 = tested on: OVCAR-4
# NCI/ADR-RES = tested on: NCI/ADR-RES
# DU-145 = tested on: DU-145
Compound,GI50 (SF-268),GI50 (RPMI-8226),GI50 (SNB-75),GI50 (MDA-N),GI50 (NCI-H522),GI50 (UACC-62),GI50 (HL-60),GI50 (OVCAR-8),GI50 (SK-OV-3),GI50 (CAKI-1),GI50 (A498),GI50 (HOP-92),GI50 (LOX IMVI),GI50 (Hs-578T),GI50 (CCRF-CEM),GI50 (HCC 2998),GI50 (SF-539),GI50 (OVCAR-4),GI50 (NCI/ADR-RES),GI50 (DU-145)
COc1cccc2c1C(=O)c1c(O)c3c(c(O)c1C2=O)C[C@@](O)(/C(C)=N/NC(=O)c1ccccc1)C[C@@H]3OC1CC(N)C(O)C(C)O1 (stereo partly drawn),0.29 µM (active),0.137 µM (active),0.373 µM (active),0.308 µM (active),0.19 µM (active),0.242 µM (active),0.0604 µM (active),0.283 µM (active),0.583 µM (active),0.141 µM (active),0.51 µM (active),0.114 µM (active),0.0935 µM (active),0.256 µM (active),0.0592 µM (active),0.481 µM (active),0.261 µM (active),1.17 µM (inactive),16.3 µM (inactive),0.135 µM (active)
COc1ccc2[nH]c(C(=O)N3CC(CCl)c4ccc(N)cc43)cc2c1 (stereo not drawn),0.0491 µM (active),0.361 µM (active),0.178 µM (active),0.144 µM (active),0.0161 µM (active),0.141 µM (active),0.0593 µM (active),0.223 µM (active),0.349 µM (active),0.0877 µM (active),0.0789 µM (active),0.634 µM (active),0.177 µM (active),0.335 µM (active),0.17 µM (active),0.14 µM (active),0.211 µM (active),0.163 µM (active),0.0912 µM (active),0.0551 µM (active)
CCCCCCCCC[n+]1cccc(C2C(C(=O)OCC)=C(C)NC(C)=C2C(=O)OCC)c1,4.67 µM (inactive),1.54 µM (inactive),3.67 µM (inactive),2.13 µM (inactive),2.68 µM (inactive),1.54 µM (inactive),2.82 µM (inactive),3.39 µM (inactive),11.3 µM (inactive),13.6 µM (inactive),18.2 µM (inactive),1.95 µM (inactive),2.92 µM (inactive),3.1 µM (inactive),2.11 µM (inactive),6.01 µM (inactive),4.15 µM (inactive),6.9 µM (inactive),52.6 µM (inactive),11.6 µM (inactive)
CC1(C)N=c2c(ncn2N)=C(C(N)=O)N1,> 100 µM (inactive),> 100 µM (inactive),> 100 µM (inactive),> 100 µM (inactive),> 100 µM (inactive),> 100 µM (inactive),> 100 µM (inactive),> 100 µM (inactive),> 100 µM (inactive),> 100 µM (inactive),> 100 µM (inactive),22.3 µM (inactive),> 100 µM (inactive),> 100 µM (inactive),> 100 µM (inactive),> 100 µM (inactive),> 100 µM (inactive),> 100 µM (inactive),> 100 µM (inactive),> 100 µM (inactive)
Cc1cc(S(=O)(=O)n2ccnc2Oc2ccccc2)c(SSc2cc(Cl)c(C)cc2S(=O)(=O)n2ccnc2Oc2ccccc2)cc1Cl,59.6 µM (inactive),> 100 µM (inactive),1.01 µM (active),> 100 µM (inactive),5.93 µM (inactive),> 100 µM (inactive),2.32 µM (inactive),> 100 µM (inactive),> 100 µM (inactive),> 100 µM (inactive),> 100 µM (inactive),> 100 µM (inactive),> 100 µM (inactive),1.95 µM (inactive),–,> 100 µM (inactive),> 100 µM (inactive),35.3 µM (inactive),43.4 µM (inactive),74.1 µM (inactive)
C=CCC1(O)c2ccccc2C(=O)c2c(O)ccc(O)c21 (stereo not drawn),10.5 µM (inactive),> 23.8 µM (inactive),3.82 µM (inactive),2.12 µM (inactive),2.62 µM (inactive),4.01 µM (inactive),3.06 µM (inactive),12.4 µM (inactive),10.4 µM (inactive),15.5 µM (inactive),4.36 µM (inactive),12.9 µM (inactive),9.66 µM (inactive),4.24 µM (inactive),11.6 µM (inactive),3.94 µM (inactive),7.93 µM (inactive),11.1 µM (inactive),2.12 µM (inactive),9.95 µM (inactive)
O=C1/C(=C/c2ccccc2O)N=C(c2ccccc2)N1c1nc2ccccc2s1,20.2 µM (inactive),19.1 µM (inactive),21.4 µM (inactive),2.51 µM (inactive),4.06 µM (inactive),–,1.21 µM (inactive),23.9 µM (inactive),23.4 µM (inactive),32.7 µM (inactive),20.4 µM (inactive),29.9 µM (inactive),15.5 µM (inactive),16 µM (inactive),25.5 µM (inactive),13.7 µM (inactive),20.7 µM (inactive),32.1 µM (inactive),14.5 µM (inactive),27.3 µM (inactive)
CC1OC(CC(=O)O)CC2=C1C(=O)c1c(O)cccc1C2=O (stereo not drawn) [NANAOMYCIN],0.316 µM (active),0.0447 µM (active),1.5 µM (inactive),0.182 µM (active),0.0278 µM (active),0.116 µM (active),0.016 µM (active),0.128 µM (active),4 µM (inactive),0.0955 µM (active),0.9 µM (active),0.125 µM (active),0.0421 µM (active),0.142 µM (active),0.0194 µM (active),0.468 µM (active),1.04 µM (active),0.274 µM (active),0.179 µM (active),1.12 µM (inactive)
Cc1nc(C)c(N2CCN(C#N)CC2)c(O)n1,> 100 µM (inactive),> 100 µM (inactive),0.0442 µM (active),> 100 µM (inactive),> 100 µM (inactive),> 100 µM (inactive),> 100 µM (inactive),93.3 µM (inactive),> 100 µM (inactive),> 100 µM (inactive),> 100 µM (inactive),> 100 µM (inactive),> 100 µM (inactive),> 100 µM (inactive),> 100 µM (inactive),> 100 µM (inactive),> 100 µM (inactive),> 100 µM (inactive),> 100 µM (inactive),> 100 µM (inactive)
COc1ccc(C)cc1NC(=S)N/N=C/c1ccco1,56.1 µM (inactive),21.4 µM (inactive),39.9 µM (inactive),18.6 µM (inactive),22.8 µM (inactive),46.8 µM (inactive),22 µM (inactive),37.3 µM (inactive),> 100 µM (inactive),55.2 µM (inactive),57.3 µM (inactive),64.6 µM (inactive),43.1 µM (inactive),66.7 µM (inactive),29 µM (inactive),36.5 µM (inactive),27.6 µM (inactive),37.4 µM (inactive),31.4 µM (inactive),> 100 µM (inactive)
Brc1ccc(/C(N=N/C(=N\Sc2ccccc2)c2ccc(Br)cc2)=N/Sc2ccccc2)cc1,> 100 µM (inactive),> 100 µM (inactive),> 71.8 µM (inactive),> 100 µM (inactive),> 100 µM (inactive),> 100 µM (inactive),> 100 µM (inactive),> 100 µM (inactive),> 100 µM (inactive),> 100 µM (inactive),> 100 µM (inactive),> 100 µM (inactive),> 100 µM (inactive),> 100 µM (inactive),> 100 µM (inactive),> 100 µM (inactive),> 100 µM (inactive),> 100 µM (inactive),> 100 µM (inactive),> 100 µM (inactive)
Cc1csc2nc(-c3ccc([N+](=O)[O-])cc3)c(/C=N/N=C(N)N)n12,1.68 µM (inactive),2.05 µM (inactive),1.58 µM (inactive),1.8 µM (inactive),1.63 µM (inactive),1.71 µM (inactive),1.85 µM (inactive),0.716 µM (active),1.69 µM (inactive),4.73 µM (inactive),1.82 µM (inactive),< 0.01 µM (active),1.9 µM (inactive),2.09 µM (inactive),1.91 µM (inactive),< 0.01 µM (active),1.85 µM (inactive),1.53 µM (inactive),6.89 µM (inactive),2.21 µM (inactive)
C=C1C(=O)OC2CC(C)C(C(O)CC(C)O)=CCC12 (stereo not drawn),14.3 µM (inactive),6.67 µM (inactive),18.3 µM (inactive),12.4 µM (inactive),1.61 µM (inactive),16.6 µM (inactive),3.08 µM (inactive),17.1 µM (inactive),36.7 µM (inactive),4.3 µM (inactive),16.9 µM (inactive),12 µM (inactive),10.6 µM (inactive),20.9 µM (inactive),1.71 µM (inactive),18 µM (inactive),15 µM (inactive),19.7 µM (inactive),17 µM (inactive),14.2 µM (inactive)
CCOC(=O)C(Cc1cc(OC)c(CC(C(=O)OCC)C(=O)OCC)cc1OC)C(=O)OCC,> 94.4 µM (inactive),> 100 µM (inactive),28.6 µM (inactive),> 100 µM (inactive),> 100 µM (inactive),> 100 µM (inactive),> 100 µM (inactive),> 81.1 µM (inactive),> 93.8 µM (inactive),> 100 µM (inactive),> 100 µM (inactive),26.9 µM (inactive),> 100 µM (inactive),> 100 µM (inactive),> 100 µM (inactive),> 100 µM (inactive),29.2 µM (inactive),> 100 µM (inactive),> 100 µM (inactive),> 100 µM (inactive)
